Test results taken from patent publication US10597405B2, “Chemical compounds” (ASTRAZENECA AB, priority 2017, dated 2020).
pIC50: −log10 of the molar value.

Target: T1, KRasG12C (Homo sapiens, UniProt P01116, G12C)
T1 construct: biotin (biotinylated); made in house
Assay: KRasG12C functional assay (HTRF nucleotide exchange / Raf RBD binding)
Assay type: biochemical
Details: GDP loaded biotinylated KRasG12C, samples incubated 4 hrs, FRET readout; single experiment or average of two or more
Description: KRasG12C Functional Assay
All enzyme and substrate solutions were prepared in assay buffer containing 20 mM HEPES (pH 7.5), 5 mM MgCl2, 150 mM NaCl, and 0.01% Tween 20. […] In a separate mix 20 nM GST-Raf Ras binding domain (GST-Raf RBD, purified in house) and 4 μg/ml anti-GST XL665 antibody (Cisbio) was prepared in assay buffer containing 50 mM Potassium Fluoride and 0.05 mg/ml BSA and equilibrated for 4 hours before adding 0.6 μM Guanosine 5′-[γ-thio]triphosphate (GTPγS, Sigma) and 0.08 μM SOS (purified in house). 5 μl of the GST-RAF RBD mix was then dispensed into each well of the assay plate. […] This is detected simultaneously via the specific binding interaction between active GTPγS KRas^G12C with GST-Raf RBD which brings the europium and XL665 into close proximity enabling an increased FRET signal to be detected on a Pherastar (BMG) plate reader equipped with the HTRF filter module. […] IC50 values were calculated from normalised dose-response response FRET data curve fitted in Genedata screener (Basel, Switzerland).

T1 sequence (P01116 1-188 isoform P01116-2 G12C): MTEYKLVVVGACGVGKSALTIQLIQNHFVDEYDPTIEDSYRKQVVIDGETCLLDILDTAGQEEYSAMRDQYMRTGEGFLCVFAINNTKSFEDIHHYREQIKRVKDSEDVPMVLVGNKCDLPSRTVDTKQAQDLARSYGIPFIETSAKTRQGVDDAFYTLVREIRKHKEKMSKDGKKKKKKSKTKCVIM

SMILES	pIC50
C=CC(=O)N1CCN2c3c(cnc4c(OC)c(-c5c(O)cccc5F)c(Cl)cc34)OC[C@H]2C1 (single isomer, unassigned) [Compound 23]	5.38
C=CC(=O)N1CCN2c3c(cnc4c(F)c(-c5c(C)ccc6[nH]cnc56)c(Cl)cc34)N(C)C(=O)[C@H]2C1 (single isomer, unassigned) [Compound 25]	7.55
C=CC(=O)N1CCN2c3c(cnc4c(F)c(-c5c(C)ccc6[nH]cnc56)c(Cl)cc34)N(C)C(=O)[C@H]2C1 (single isomer, unassigned) [Compound 26]	6.35
C=CC(=O)N1C[C@@H]2C(=O)N(C)c3cnc4c(F)c(-c5c(C)ccc6[nH]cnc56)c(Cl)cc4c3N2C[C@H]1C (single isomer, unassigned) [Compound 27]	5.06
C=CC(=O)N1C[C@@H]2C(=O)N(C)c3cnc4c(F)c(-c5c(C)ccc6[nH]cnc56)c(Cl)cc4c3N2C[C@H]1C (single isomer, unassigned) [Compound 28]	8.52
C[C@@H]1CN2c3c(cnc4c(F)c(-c5c(O)cccc5F)c(Cl)cc34)N(C)C(=O)[C@H]2CN1C(=O)/C=C/CN(C)C (single isomer, unassigned) [Compound 29]	7.60
C=CC(=O)N1C[C@@H]2C(=O)Nc3cnc4c(F)c(-c5c(O)cccc5F)c(Cl)cc4c3N2C[C@H]1C (single isomer, unassigned) [Compound 30]	5.34
C=CC(=O)N1C[C@@H]2C(=O)Nc3cnc4c(F)c(-c5c(O)cccc5F)c(Cl)cc4c3N2C[C@H]1C (single isomer, unassigned) [Compound 31]	8.40
C=CC(=O)N1CCN2c3c(cnc4cc(-c5c(O)cccc5F)c(Cl)cc34)N(C)C(=O)C2(C)C1 (single isomer, unassigned) [Compound 32, 11-Chloro-10-(2-fluoro-6-hydroxyphenyl)-4a,6-dimethyl-3-(prop-2-enoyl)-2,3,4,4a-tetrahydro-1H-pyrazino[1′,2′:4,5]pyrazino[2,3-c]quinolin-5(6H)-one]	5.66
C=CC(=O)N1CCN2c3c(cnc4c(F)c(-c5c(F)cccc5CO)c(Cl)cc34)N(C)C(=O)[C@H]2C1 (single isomer, unassigned) [Compound 34]	5.01
C=CC(=O)N1CCN2c3c(cnc4c(F)c(-c5c(F)cccc5CO)c(Cl)cc34)N(C)C(=O)[C@H]2C1 (single isomer, unassigned) [Compound 35]	6.88
C[C@@H]1CN2c3c(cnc4c(F)c(-c5c(O)cccc5F)c(Cl)cc34)OC[C@H]2CN1C(=O)/C=C/CN(C)C (single isomer, unassigned) [Compound 36]	4.55
C[C@@H]1CN2c3c(cnc4c(F)c(-c5c(O)cccc5F)c(Cl)cc34)OC[C@H]2CN1C(=O)/C=C/CN(C)C (single isomer, unassigned) [Compound 37]	7.68
C=CC(=O)N1C[C@@H]2COc3cnc4c(C)c(-c5c(O)cccc5F)c(Cl)cc4c3N2C[C@H]1C (single isomer, unassigned) [Compound 41]	5.82
C=CC(=O)N1CCN2c3c(cnc4c(C)c(-c5c(O)cccc5F)c(C)cc34)N(C)C(=O)[C@H]2C1 (single isomer, unassigned) [Compound 43]	< 4.00
C=CC(=O)N1CCN2c3c(cnc4c(C)c(-c5c(O)cccc5F)c(C)cc34)N(C)C(=O)[C@H]2C1 (single isomer, unassigned) [Compound 44]	6.85
C=CC(=O)N1CCN2c3c(cnc4cc(-c5c(F)ccc6cc[nH]c(=O)c56)c(Cl)cc34)OC[C@H]2C1 (single isomer, unassigned) [Compound 46]	5.96
C=CC(=O)N1CCN2c3c(cnc4c(F)c(-c5c(C)ccc6[nH]c(=O)oc56)c(Cl)cc34)OC[C@H]2C1 (single isomer, unassigned) [Compound 47]	7.51
C=CC(=O)N1CCN2c3c(cnc4c(F)c(-c5c(C)ccc6[nH]c(=O)oc56)c(Cl)cc34)OC[C@H]2C1 (single isomer, unassigned) [Compound 48]	5.44
C=CC(=O)N1CCN2c3c(cnc4c(F)c(-c5c(C)ccc6[nH]ncc56)c(Cl)cc34)N(C)C(=O)[C@H]2C1 (single isomer, unassigned) [Compound 50]	5.02
C=CC(=O)N1CCN2c3c(cnc4c(F)c(-c5c(O)cccc5Cl)c(Cl)cc34)N(C)C(=O)[C@H]2C1 (single isomer, unassigned) [Compound 51]	< 4.00
C=CC(=O)N1CCN2c3c(cnc4c(F)c(-c5c(O)cccc5Cl)c(Cl)cc34)N(C)C(=O)[C@H]2C1 (single isomer, unassigned) [Compound 52]	7.85
C=CC(=O)N1CCN2c3c(cnc4c(F)c(-c5c(C)cccc5O)c(Cl)cc34)N(C)C(=O)[C@H]2C1 (single isomer, unassigned) [Compound 53]	4.42
C=CC(=O)N1CCN2c3c(cnc4c(F)c(-c5c(C)cccc5O)c(Cl)cc34)N(C)C(=O)[C@H]2C1 (single isomer, unassigned) [Compound 54]	7.40

SMILES	pIC50
C=CC(=O)N1CCN2c3c(cnc4c(F)c(-c5c(O)ccc6ccccc56)c(Cl)cc34)N(C)C(=O)[C@H]2C1 (single isomer, unassigned) [Compound 55]	5.23
C=CC(=O)N1CCN2c3c(cnc4c(F)c(-c5c(O)ccc6ccccc56)c(Cl)cc34)N(C)C(=O)[C@H]2C1 (single isomer, unassigned) [Compound 56]	7.25
C=CC(=O)N1CCN2c3c(cnc4c(F)c(-c5c(O)ccc(F)c5F)c(Cl)cc34)N(C)C(=O)[C@H]2C1 (single isomer, unassigned) [Compound 57]	5.05
C=CC(=O)N1CCN2c3c(cnc4c(F)c(-c5c(O)ccc(F)c5F)c(Cl)cc34)N(C)C(=O)[C@H]2C1 (single isomer, unassigned) [Compound 58]	7.70
C=CC(=O)N1CCN2c3c(cnc4c(F)c(-c5c(O)cccc5C(F)F)c(Cl)cc34)N(C)C(=O)[C@H]2C1 (single isomer, unassigned) [Compound 61]	4.41
C=CC(=O)N1CCN2c3c(cnc4c(F)c(-c5c(O)cccc5C(F)F)c(Cl)cc34)N(C)C(=O)[C@H]2C1 (single isomer, unassigned) [Compound 62]	7.43
C=CC(=O)N1C[C@@H]2COc3cnc4c(F)c(-c5c(O)cccc5F)c(F)cc4c3N2C[C@H]1C (single isomer, unassigned) [Compound 63]	5.72
C=CC(=O)N1C[C@@H]2COc3cnc4c(F)c(-c5c(O)cccc5F)c(F)cc4c3N2C[C@H]1C (single isomer, unassigned) [Compound 64]	7.70
C=CC(=O)N1CCN2c3c(cnc4cc(-c5c(C)ccc6[nH]c(=O)[nH]c56)c(Cl)cc34)OC[C@H]2C1 (single isomer, unassigned) [Compound 72]	5.08
C=CC(=O)N1CCN2c3c(cnc4cc(-c5c(C)ccc6[nH]ncc56)c(Cl)cc34)N(CCN(C)C)C[C@H]2C1 (single isomer, unassigned) [Compound 73]	7.24
C=CC(=O)N1CCN2c3c(cnc4cc(-c5c(C)ccc6[nH]ncc56)c(Cl)cc34)N(CCN(C)C)C[C@H]2C1 (single isomer, unassigned) [Compound 74]	4.88
C#Cc1cc2c3c(cnc2cc1-c1c(C)ccc2[nH]ncc12)OC[C@H]1CN(C(=O)C=C)CCN31 (single isomer, unassigned) [Compound 76]	6.03
C=CC(=O)N1CCN2c3c(cnc4c(F)c(-c5c(C)ccc6[nH]cnc56)c(Cl)cc34)OC[C@H]2C1 (single isomer, unassigned) [Compound 78]	5.15
C=CC(=O)N1CCN2c3c(cnc4c(Cl)c(-c5c(O)cccc5F)c(F)cc34)N(C)C(=O)[C@H]2C1 (single isomer, unassigned) [Compound 79]	6.85
C=CC(=O)N1CCN2c3c(cnc4c(Cl)c(-c5c(O)cccc5F)c(F)cc34)N(C)C(=O)[C@H]2C1 (single isomer, unassigned) [Compound 80]	4.83
C=CC(=O)N1CCN2c3c(cnc4c(F)c(-c5c(C)ccc6[nH]c(=O)n(C)c56)c(Cl)cc34)OC[C@H]2C1 (single isomer, unassigned) [Compound 84]	5.62
C=CC(=O)N1CCN2c3c(cnc4c(F)c(-c5c(C)ccc6[nH]c(=O)n(C)c56)c(Cl)cc34)OC[C@H]2C1 (single isomer, unassigned) [Compound 85]	8.00
C=CC(=O)N1CCN2c3c(cnc4c(F)c(-c5c(C)ccc6c5C(=O)NC6)c(Cl)cc34)OC[C@H]2C1 (single isomer, unassigned) [Compound 87]	5.07
C=CC(=O)N1CCN2c3c(cnc4c(F)c(-c5c(O)cccc5F)c(Cl)cc34)NC(=O)[C@H]2C1 (single isomer, unassigned) [Compound 89]	5.44
C=CC(=O)N1CCN2c3c(cnc4c(C)c(-c5c(O)cccc5F)c(C)nc34)N(C)C(=O)[C@H]2C1 (single isomer, unassigned) [Compound 91]	4.45
C=CC(=O)N1CCN2c3c(cnc4cc(-c5c(C)ccc6[nH]ncc56)c(Cl)cc34)OC[C@H]2C1 (single isomer, unassigned) [Example 4]	5.77
C=CC(=O)N1CCN2c3c(cnc4cc(-c5c(C)ccc6[nH]ncc56)c(Cl)cc34)OC[C@@H]2C1 (single isomer, unassigned) [Example 5]	5.24
C=CC(=O)N1CCN2c3c(cnc4cc(-c5c(C)ccc6[nH]ncc56)c(Cl)cc34)OC[C@@H]2C1 (single isomer, unassigned) [Example 6]	6.18
